Patent US20030017618A1, “Chemical sensor and method of detecting chemical” (priority 2000, published 2003)

target: T1, bovine derivation odorant binding protein (OBP) (Bos taurus, UniProt P07435); experiment: not given; settings: grade in words (high / moderate affinity); cited from earlier work
T1 sequence (P07435 1-159): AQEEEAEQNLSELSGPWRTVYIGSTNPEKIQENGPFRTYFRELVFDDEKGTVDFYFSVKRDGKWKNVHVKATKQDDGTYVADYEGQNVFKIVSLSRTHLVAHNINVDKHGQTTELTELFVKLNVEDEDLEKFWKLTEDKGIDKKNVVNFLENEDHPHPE

Molecule | affinity for the OBP
dimethyl octhene | moderate affinity
CC(C)=CCCC(C)CC=O (centres unmarked) [citronellal] | moderate affinity
CC/C=C\CC1=C(C)CCC1=O [cisjasmone] | moderate affinity
CCCCCCCCOC(=O)C(C)C [octyl isobutyrate] | moderate affinity
CC1=C(/C=C/C(C)=C/C=C/C(C)=C/C=O)C(C)(C)CCC1 [retinal] | moderate affinity
CCCCCCCCCCC=O [undecanal] | high affinity
jessemal | moderate affinity
CCCCCC1COCCC1OC(C)=O (centres unmarked) [jasmal] | moderate affinity
CC1(C)C2CC=C(CCC=O)C1C2 (centres unmarked) [pinoacetaldehyde] | moderate affinity
dimethyl octane | moderate affinity
hexyl pyridine | high affinity
CCCCCCOC(=O)C(C)CC (centres unmarked) [hexyl methylbutyrate] | moderate affinity
C=CCc1ccc(O)c(OC)c1 [eugenol] | moderate affinity
heptenal | moderate affinity
CC(C)C/C=C(/C=O)c1ccccc1 [cocal] | moderate affinity
CC(=O)OC1CCC(C(C)(C)C)CC1 (centres unmarked) [vertenex] | moderate affinity
CCCCC[C@H]1C(=O)CC[C@H]1CC(=O)OC [epimethyl dihydrojasmonate] | moderate affinity
CCOC(=O)c1ccccc1C(=O)OCC [diethylphthalate] | moderate affinity
CCCCCCC=O [heptanal] | moderate affinity
CC(C)CCCC(C)(C)O [dimethol] | moderate affinity

Molecule | affinity for the OBP
CCCCCCCCC=O [nonanal] | moderate affinity
C=CC(C)CCCC(C)(C)O (centres unmarked) [dihydromyrcenol] | high affinity
agrumea | moderate affinity
CCCCCCCCOC(=O)CC(C)C [octyl isovalerate] | moderate affinity
CC(C)CCCC(C)CCO (centres unmarked) | high affinity
CC(C)=CCCC(C)=CC#N [citralva] | high affinity
ambrettolide | moderate affinity
ionone | moderate affinity
COC(C=C(C)CCC=C(C)C)OC [citral dimethyl acetal] | moderate affinity
CC(C)=CCC/C(C)=C/CO [geraniol] | moderate affinity
CC1=C(/C=C/C(C)=C/C=C/C(C)=C/CO)C(C)(C)CCC1 [retinol] | moderate affinity
C/C=C(C)\C=C\C=C(C)C [neo-alloocimen] | moderate affinity
CC1C(C)(C)C2=C(C(=O)CCC2)C1(C)C (centres unmarked) [cashmeran] | moderate affinity
CC(=O)OCCC(C)CCC=C(C)C (centres unmarked) [citronellyl acetate] | moderate affinity
CC(C)CC(=O)OCc1ccccc1 [benzyl isovalerate] | high affinity
CCCCCCCCCC=O [decanal] | moderate affinity
CC1COCc2cc3c(cc21)C(C)(C)C(C)C3(C)C (centres unmarked) [galaxolide] | moderate affinity
CC(C)=CCC/C(C)=C\CO [nerol] | moderate affinity
CC(C)[C@@H]1CC[C@@H](C)CC1=O [menthone] | moderate affinity
carbon | moderate affinity

Molecule | affinity for the OBP
CC(=O)OC/C=C(\C)CCC=C(C)C [geranyl acetate] | moderate affinity
CCCCCCC(C=O)=Cc1ccccc1 [hexyl cinnamic aldehyde] | high affinity
C=CC(C)(O)CCC=C(C)C (centres unmarked) [linalool] | moderate affinity
CC(C)=CCCC1=CCC(C=O)CC1 (centres unmarked) [myrmac aldehyde] | moderate affinity
CC(C)=CCC/C(C)=C/CCC=O [geranyl acetaldehyde] | moderate affinity
CC(C)CC(=O)OC1CC2CCC1(C)C2(C)C (centres unmarked) [bornyl isovalerate] | moderate affinity
musk 89 | high affinity
CCCCC/C(C=O)=C/c1ccccc1 [amyl cinnamic aldehyde] | high affinity
CC(C)=CCCC(C)CCO (centres unmarked) [citronellol] | high affinity
CCCCCCCCCCCCCC=O [tetradecanal] | high affinity
O=C(OCc1ccccc1)c1ccccc1 [benzyl benzoate] | high affinity
CC/C(=C\CC1CC=C(C)C1(C)C)CO (centres unmarked) [bacdanol] | moderate affinity
CCCCCC1C(=O)CCC1CC(=O)OC (centres unmarked) [methyl dihydrojasmonate] | moderate affinity
O=C(c1ccccc1)c1ccccc1 [benzophenone] | high affinity
Cc1c[nH]c2ccccc12 [skatole] | high affinity
OCCc1ccccc1 [phenetyl alcohol] | moderate affinity
coniferane | moderate affinity
pinylisobutyl aldehyde | moderate affinity

target: T2, OBP 6C (Bos taurus, UniProt P07435); experiment: quantity of immobilization of OBP 6C to NTA sensor chip (surface plasmon resonance, BiacoreX) in presence of odorant; type: binding, bovine; settings: Inventive Example 1, FIG. 12; odorant final concentration 10^−8 M; OBP solution 200 nM; 25° C.; comparison between odorants
T2 construct: successively elongated for finally synthesizing the whole length of the OBP gene; made in house; host or cells: E. coli BL21 (pET 28a(+), pETOBP-His)
T2 sequence (P07435 1-159): T1 sequence (P07435 1-159)
Protocol: In preparation of the OBP 6C solution employed in the present Inventive Example, the OBP 6C prepared in the aforementioned manner was dissolved in an EB (eluent buffer) and diluted so that the concentration of the solution reached 200 nM.
In preparation of the odorant solutions employed in the present Inventive Example, on the other hand, the six types of odorants, i.e., cineol, linalyl acetate, pinene, geraniol, citronellal and oxidized citronellal were dissolved in ethanol solutions (EtOH) respectively, for preparing odorant solutions of 10^−5 M in concentration as to the respective odorants.
100 μl of the OBP solution having the concentration of 200 nM prepared in the aforementioned manner and 0.1 μl of each odorant solution having the concentration of 10^−5 M were mixed with each other, for preparing six types of sample solutions employed for measurement. In this case, the final concentration of the odorant in each sample solution is […].
An ethanol solution of the OBP 6C (final concentration of EtOH: 0.1%) containing no odorant was also prepared as a comparative sample (blank).
Each sample solution prepared in the aforementioned manner was left to stand at 25° C. for one hour.
Then, an NTA sensor chip (by Biacore) was set in BiacoreX (by Biacore) and thereafter the temperature was set to 25° C. for performing priming with an elution buffer shown in Table 4 described later. Thereafter stabilization of the base was confirmed and the elution buffer was continuously fed at a flow velocity of 20 μl/min. until the temperature reached the set value.
Further, a reproduced solution (30 μl) shown in Table 4 described later was added at a flow velocity of 10 μl/min. and excessive bivalent cation was removed. Then, an Ni solution (30 μl) shown in Table 4 described later was added at a flow velocity of 10 μl/min. for chelating Ni to NTA and immobilizing Ni.
Then, one of the sample solutions (10 μl) prepared in the above was added at a flow velocity of 1 μl/min. for 10 minutes, for immobilizing the OBP 6C onto the sensor chip. After completion of immobilization, the quantity of immobilization of the OBP 6C was measured. Thereafter the reproduced solution shown in Table 4 was employed for washing and removing the OBP 6C immobilized onto the sensor chip.
Operations similar to the above were performed also as to the other sample solutions, for measuring the quantities of immobilization of the OBP 6C as to all of the six types of sample solutions and the comparative (blank) sample solution.
In this case, the quantity of immobilization of the comparative sample (blank) containing no odorant was regarded as 100% for calculating relative values of the quantities of immobilization of the OBP 6C in the respective samples with reference thereto.
In the present Inventive Example, an OBP 6C solution was first prepared along with preparation of DMO solutions. In this case, the OBP 6C solution was prepared by a method similar to the preparation method in Inventive Example 1. In preparation of the DMO solutions, DMO was dissolved in ethanol (EtOH), for preparing solutions of 10^−3, 10^−4, 10^−5 and 10^−6 M in concentration respectively.
100 μl of the OBP 6C solution having the concentration of […] and 0.5 μl of each of the DMO solutions of 10^−3, 10^−4, 10^−5 and 10^−6 M, thereby preparing sample solutions having DMO final concentration values of 5×10^−6, 5×10^−7, 5×10^−8 and 5×10^−9 M respectively. Also in this case, an ethanol solution (final concentration of EtOH: 0.1%) of the OBP 6C containing no DMO was prepared as a comparative sample, similarly to the case of Inventive Example 1.
The respective sample solutions prepared in the aforementioned manner were left to stand at 25° C. for one hour.
After preparing the sample solutions in the aforementioned manner, the quantities of immobilization of the OBP 6C were measured as to the respective sample solutions by a method similar to that in Inventive Example 1.

Molecule | affinity for the OBP 6C
CC(C)=CCCC(C)CC=O (centres unmarked) [citronellal] | higher affinity for the OBP 6C as compared with geraniol
oxidized citronellal | reduced in oxidized citronellal as compared with non-oxidized citronellal

same assay, conditions: Inventive Example 1, FIG. 12; odorant final concentration 10^−8 M; blank regarded as 100%; comparison between odorants

Molecule | quantity of immobilization of the OBP 6C
CC(C)=CCCC(C)CC=O (centres unmarked) [citronellal] | reduced in citronellal as compared with geraniol
oxidized citronellal | increased in oxidized citronellal as compared with the non-oxidized case

same assay, conditions: Inventive Example 2, FIG. 13

Molecule | DMO concentration that can be determined from the quantity of immobilization of the OBP 6C (quantitative limit)
CC(C)CCCC(C)CCO (centres unmarked) | at least 10^−8 M

same assay, conditions: Inventive Example 2, FIG. 13; DMO 5×10^−6 to 5×10^−9 M

Molecule | DMO concentration range with constant correlation between concentration and quantity of immobilization of the OBP 6C
CC(C)CCCC(C)CCO (centres unmarked) | at least 5×10^−8 M

same assay, conditions: Inventive Example 2, FIG. 13; DMO concentration smaller than 10^−8 M; versus absence of the odorant

Molecule | quantity of immobilization of the OBP 6C
CC(C)CCCC(C)CCO (centres unmarked) | equalized with the quantity of immobilization
